Measurements as given in patent US6800656B2, “Tricyclic compounds and method of treating herpes virus” (Warner Lambert Company, priority 2000, dated 2004).

Key:
in vitro = type: cell-based; settings: for CC50: African green monkey; for CC50 at 7 days: human
Protocol: Anti-human cytomegalovirus (HCMV) activity is determined in a yield reduction assay utilizing a recombinant HCMV (RC256) that produces β-gal (Spaete, R. R.; Mocarski, E. S. Proceedings of the National Academy of Sciences USA 84:7213-7217, 1987). Primary human diploid fibroblasts (HFF cells) are infected at an moi of 0.01 with RC256, and serial dilutions of the compound in DMSO are added. The final concentration of DMSO in all wells is 1%. The infection is allowed to proceed for 7 days at which time the β-gal activity in cell lysates is measured. Activity in wells containing compound is compared to control wells and percent inhibition determined.
Cellular toxicity assays: Cellular toxicity is measured in HFF cells. Cells are plated in 96 well plates at 1×10^4 cells/well. Serial dilutions of compounds are added to the wells in DMSO, with the final concentration of DMSO in all wells at 1%, in a total volume of 200 μL. The plates are maintained in a 37° C. incubator for 7 days. 50 μL of a solution of XTT (sodium-3′[1-(phenyl-amino-carbonyl)-3,-tetrazolium]-bis(bis(4-methoxy-6-nitro)-benzene sulfonic acid hydrate) (3×10^−4 mg/ml) is added to each well, and the plates returned to the incubator for 4 hours, after which the A450 (absorbance at wavelength of 450 nm) for each well is measured in a plate reader. (Roehm, N. W., et al J. Immunol. Meth. 142:257-265, 1991). Toxicity is determined by comparison of the OD (optical density) of a well containing compound to the OD of wells containing DMSO only.

[1] = system: herpes simplex virus 1 (HSV); assay: microbe, parasite or virus in culture; type: cell-based; settings: for EC50: Human alphaherpesvirus 1, Vero; for TI (EC50/TC50): therapeutic index, HSV-1, Vero cells
Protocol: Vero (African Green Monkey kidney) cells are infected at a multiplicity of infection of 0.01 with the virus, and serial dilutions of the compound in dimethyl sulfoxide (DMSO) are added. The final concentration of DMSO in all wells is 1%. DMSO is added to control wells. The infection is allowed to proceed for 2 days at which time the β-gal activity in cell lysates is measured. Activity in wells containing compound is compared to control wells and percent inhibition determined.

[2] = system: human cytomegalovirus (HCMV); assay: microbe, parasite or virus in culture; type: cell-based; settings: Human betaherpesvirus 5, HFF
Protocol: Primary human diploid fibroblasts (HFF cells) are infected at an moi of 0.01 with RC256, and serial dilutions of the compound in DMSO are added. The final concentration of DMSO in all wells is 1%. The infection is allowed to proceed for 7 days at which time the β-gal activity in cell lysates is measured. Activity in wells containing compound is compared to control wells and percent inhibition determined.

| SMILES | melting point [°C] | CC50 (in vitro) [µM] | EC50 [1] [nM] | TI (EC50/TC50) [1] | CC50 at 7 days (in vitro) [µM] | EC50 [2] [nM] |
| --- | --- | --- | --- | --- | --- | --- |
| c1ccc(Oc2ccc(CNc3ccc4oc5ccccc5c4c3)cc2)cc1 | 91 to 93 | – | – | – | – | – |
| c1ccc2c(c1)CN(c1ccc3oc4ccccc4c3c1)C2 | 193 to 195 | – | – | – | – | – |
| O=C1c2ccccc2C(=O)N1c1ccc2oc3ccccc3c2c1 | 217 to 218 | – | – | – | – | – |
| FC(F)(F)Oc1ccc(CNc2ccc3oc4ccccc4c3c2)cc1 | 75 to 77 | – | – | – | – | – |
| Oc1ccccc1CNc1ccc2oc3ccccc3c2c1 | 145 to 147 | – | – | – | – | – |
| c1ccc(Oc2cccc(CNc3ccc4oc5ccccc5c4c3)c2)cc1 | 93 to 94 | – | – | – | – | – |
| CC(Nc1ccc2oc3ccccc3c2c1)c1ccccc1 (stereo not drawn) | 94 to 95 | – | – | – | – | – |
| c1ccc2c(c1)oc1ccc(NCc3ccc4c(c3)OCO4)cc12 | 85 to 86 | – | – | – | – | – |
| Cc1ccccc1CNc1ccc2oc3ccccc3c2c1 | 84 to 85 | – | – | – | – | – |
| c1ccc2c(c1)oc1ccc(NCc3ccsc3)cc12 | 62 to 63 | – | – | – | – | – |
| c1ccc(CNc2ccc3oc4ccccc4c3c2)cc1 | 81 to 82 | – | – | – | – | – |
| COc1cc(CNc2ccc3oc4ccccc4c3c2)cc(OC)c1 [Example 56, Dibenzofuran-2-yl-(3,5-dimethoxy-benzyl)-amine] | 87 to 88 | > 100 | 700 | >143 | – | – |
| FC(F)(F)c1ccc(CNc2ccc3oc4ccccc4c3c2)cc1 [Example 57, Dibenzofuran-2-yl-(4-trifluoromethyl-benzyl)-amine] | 89 to 90 | > 100 | 810 | >124 | > 100 | 1700 |
| O=[N+]([O-])c1ccc(CNc2ccc3oc4ccccc4c3c2)cc1 [Example 60, Dibenzofuran-2-yl-(4-nitro-benzyl)-amine] | – | > 100 | 500 | >200 | > 100 | 1300 |
| CSc1ccc(CNc2ccc3oc4ccccc4c3c2)cc1 [Example 61, Dibenzofuran-2-yl-(4-methylsulfanyl-benzyl)-amine] | 103 to 104 | – | – | – | > 100 | 2900 |
| CCCC(Cc1ccccc1)Nc1ccc2oc3ccccc3c2c1 (stereo not drawn) [Example 65, (1-Benzyl-butyl)-dibenzofuran-2-yl-amine] | – | – | – | – | > 100 | 3000 |
| c1cnc2c(c1)Oc1cc(NCc3cccc4ccccc34)ccc1S2 [Example 93, Naphthalene-1-ylmethyl-(10-oxa-9-thia-1-aza-anthracen-6-yl)-amine] | – | > 100 | 1300 | >77 | – | – |
| COc1ccc(CNc2ccc3oc4ccc(Cl)cc4c3c2)cc1F [Example 139, (8-Chloro-dibenzofuran-2-yl)-(3-fluoro-4-methoxy-benzyl)-amine] | – | > 100 | 400 | >250 | – | – |
| COc1ccc(CNc2cccc3c2oc2ccccc23)cc1 [Example 150, Dibenzofuran-4-yl-(4-methoxy-benzyl)-amine] | – | > 100 | 850 | >118 | – | – |
| Fc1ccc(CNc2ccc3c(c2)Oc2ccccc2S3)c(F)c1 [Example 208, (2,4-Difluoro-benzyl)-phenoxathiin-3-yl-amine] | – | > 100 | 260 | >385 | – | – |
| CCn1c2ccccc2c2cc(NCc3cccc(F)c3C)ccc21 [Example 217, (9-Ethyl-9H-carbazol-3-yl)-(3-fluoro-2-methyl-benzyl)-amine] | – | > 100 | 320 | >313 | – | – |
| Nc1nc(O)c2ncn(COC(CO)CO)c2n1 [Ganciclovir] | – | – | – | – | > 100 | 2600 |
